How the values were obtained:
[1] = tested on: Phytophthora infestans; type: in vivo; conditions: tomato plants, protective spray, application rate 50 g/ha, evaluation 3 days after inoculation; 100% = no infection

SMILES | Efficacy in % [1] [%] | melting point [°C]
Cc1noc(C)c1S(=O)(=O)n1nc(Cl)nc1-c1ccccc1 [drawing 94] | 97 | 
Cc1noc(C)c1S(=O)(=O)n1nc(Cl)nc1-c1ccccc1 [Example 1] |  | 70 to 74
